Here are results for two substances from patent US10030056B2, “Agents for preventing and treating HIV and other viral infections” (priority 2013, dated 2018).

For assay [1], the system named is HIV-1 laboratory strain NL4-3 PI 952. Nature of the assay: Infectivity of HIV-1 NL4-3 PI 952 in TZM-bl cells with 6 μg/ml SEVI fibrils, luciferase activity (FIG. 4, Table 1). The class given is cell-based. The following applies: for luciferase activity of infected cells, mean value: 6 μg/ml SEVI fibrils, 48 hours after infection, HIV + SEVI control 7264.0, HIV + PBS 579.0; for lowering of the increased infectivity of the viruses caused by fibrils associated with SEVI: summary of Table 1 / FIG. 4. The procedure:
The test approach was broken down as follows: The reporter cell line TZM-bl was incubated with the HIV-1 laboratory strain NL4-3 PI 952 in the presence of 6 μg/ml SEVI fibrils (fibril-forming PAP fragments isolated from semen; semen derived enhancer of virus infection). The fibrils were pre-Incubated with or without D3 and D3D3 (0.5 and 5 μg/ml, respectively) prior to infection. The infection efficiency was determined by measuring the luciferase activity (introduced by a luciferase gene coded in the laboratory strain) of the infected cells 48 hours after infection (Table 1: Results of FIG. 4).

Assay [2] concerns HIV-1.
Source text: So as to analyze the effect of the amyloidogenic inhibitor D3 as a potential therapeutic agent for reducing amyloid peptide-promoted retroviral propagation, adherently growing TZM-bl cells were infected with HIV-1. […] The TZM-bl indicator cell line thus allows a quantitative analysis of HIV infection efficiency.
D3 was composed of amino acids of the D-enantiomeric form. Forty-eight hours after infection, the TZM-bl cells were washed with PBS, fixed by adding formaldehyde/glutaraldehyde, and subsequently washed again. The β-galactosidase-induced blue coloration of the cells was carried out by incubation overnight with a X-Gal solution. The coloring solution was removed the following day, the fixed cells were washed again with PBS and analyzed for blue coloration by way of optical microscopy. Since these reporter cells also express luciferase, in addition to the β-galactosidase, proportionally with the infection rate, this effect could also be determined quantitatively. For this purpose, the cells were infected in the same manner and, after being washed twice with PBS, were lysed using 1× passive lysis buffer (PLB). After adding luciferase substrate solution, the light intensity at the 560 nm wavelength created by the oxidation of luciferin, which, in turn, is catalyzed by the firefly luciferase enzyme, was measured. […]
The subject of assay [3] is HIV-1. The source holds these as a separate data set.
Source text: So as to analyze the effect of the amyloidogenic inhibitor D3 as a potential therapeutic agent for reducing amyloid peptide-promoted retroviral propagation, adherently growing TZM-bl cells were infected with HIV-1. These cells express the HIV-1 receptors CD4, CXCR4 and CCR5, which is why they are permissive both for T-tropic and M-tropic HIV isolates. […] The TZM-bl indicator cell line thus allows a quantitative analysis of HIV infection efficiency.
D3 was composed of amino acids of the D-enantiomeric form. Forty-eight hours after infection, the TZM-bl cells were washed with PBS, fixed by adding formaldehyde/glutaraldehyde, and subsequently washed again. The β-galactosidase-induced blue coloration of the cells was carried out by incubation overnight with a X-Gal solution. The coloring solution was removed the following day, the fixed cells were washed again with PBS and analyzed for blue coloration by way of optical microscopy. Since these reporter cells also express luciferase, in addition to the β-galactosidase, proportionally with the infection rate, this effect could also be determined quantitatively. […] After adding luciferase substrate solution, the light intensity at the 560 nm wavelength created by the oxidation of luciferin, which, in turn, is catalyzed by the firefly luciferase enzyme, was measured. […]
[4] abbreviates: number of cells colored in blue and measured light intensity.

Non-standard residues stand in square brackets, D forms with d. No end group written: not given here.

For the substance “rprtrlhthrnrrprtrlhthrnr ([dR][dP][dR][dT][dR][dL][dH][dT][dH][dR][dN][dR][dR][dP][dR][dT][dR][dL][dH][dT][dH][dR][dN][dR]) [D3D3, dimer of two D3 monomer units]”, the “luciferase activity of infected cells, mean value” in assay [1] (0.5 μg/ml peptide) is given as 5529.7; in assay [1] (5 μg/ml peptide) it was 1321.0. In addition, the “lowering of the increased infectivity of the viruses caused by fibrils associated with SEVI” value in assay [1] is “approximately 80%”.
Turning to “rprtrlhthrnr ([dR][dP][dR][dT][dR][dL][dH][dT][dH][dR][dN][dR]) [D3]”, the figures for the “luciferase activity of infected cells, mean value” in assay [1] (0.5 μg/ml peptide) and in assay [1] (5 μg/ml peptide) were 7112.7 and 4368.0, respectively. In assay [1], the “lowering of the increased infectivity of the viruses caused by fibrils associated with SEVI” value was “approximately 80%”. Also, the “decrease in number of infected cells compared to the untreated cells with amyloid-beta fibrils” value in assay [2] (5 μg/ml D3, Aβ1-42 fibrils 50 μg/ml, TZM-bl cells, FIG. 2D) is given as “approximately 90%”. In addition, the “reduction of infection rate promoted by Aβ” value in assay [2] (setting [4]) is listed as “considerably reduce”. Further, the “decrease in number of infected cells compared to the untreated cells with SEVI fibrils” value in assay [3] (0.5 μg/ml D3, SEVI fibrils, TZM-bl cells, FIG. 2C) is on record as “approximately 60%”. In addition, in assay [3] (setting [4]), the “reduction of infection rate promoted by SEVI” value was “considerably reduce”.
